{"source": "patent US20170108514A1", "about": "“DIAGNOSIS OF MULTIPLE SCLEROSIS IN HUMAN AND ANIMAL SUBJECTS” (THE REGENTS OF THE UNIVERSITY OF COLORADO, a body corporate, priority 2014, published 2017)", "key": {"[1]": {"test_system": "multiple sclerosis patients", "details": "human, in vivo; cited from earlier work"}, "[2]": {"test_system": "multiple sclerosis patients", "details": "cited from earlier work; for relapses / attacks: clinical reports; for relapses / attacks / disease / disability progression / MRI / MRI lesions: MS patients"}, "[3]": {"test_system": "Th40 cells from MS subjects", "test": "Antigen assay: proliferation of CFSE-labeled T cells (Th40) exposed to autologous APC/peptide antigen for 7 days", "type": "cell-based, human"}, "[4]": {"details": "DR4 co-expressed with DR2, antigen 5 μg/ml"}, "[5]": {"details": "DR4 co-expressed with DR6, antigen 5 μg/ml"}, "[6]": {"details": "DR6 a fixed allele, any haplotype at other allele, antigen 5 μg/ml"}, "[7]": {"details": "RRMS subjects, DR2 at one allele, other allele any haplotype, antigen 5 μg/ml"}, "[8]": {"details": "DR2 and DR6 co-expressed, antigen 5 μg/ml"}, "[9]": {"details": "DR6 at both alleles, antigen 5 μg/ml"}, "[10]": {"details": "DR4 expressing MS subjects, open second allele, antigen 5 μg/ml"}}, "note": "Structures can show the parent of a compound that is named as a salt.", "data": [{"compound": "C/C(O)=C(\\C#N)C(=O)Nc1ccc(C(F)(F)F)cc1", "note": "[Aubagio, teriflunomide]", "values": [{"measurement": "safety in patients", "setting": "[1]", "value": "moderate potential for hepatotoxicity"}]}, {"compound": "CCCCCCCCc1ccc(CCC(N)(CO)CO)cc1", "note": "[Gilenya, fingolimod]", "values": [{"measurement": "safety in patients", "setting": "[1]", "value": "extremely immune-suppressive"}]}, {"compound": "O=C1c2c(O)ccc(O)c2C(=O)c2c(NCCNCCO)ccc(NCCNCCO)c21", "note": "[Novantrone, mitoxantrone]", "values": [{"measurement": "relapses / attacks", "setting": "[2]", "value": "lessens relapses"}, {"measurement": "disease / disability progression", "setting": "[2]; reports", "value": "slows progression"}]}, {"compound": "COC(=O)/C=C/C(=O)OC", "note": "[Tecfidera, dimethyl fumarate]", "values": [{"measurement": "relapses / attacks", "setting": "[2]", "value": "some reduction in the average annual number of relapses"}, {"measurement": "disease / disability progression", "setting": "[2]; reports", "value": "not reduced significantly"}]}, {"compound": "ADPGSRPHLIRLFSRDAPGR [MBP83, MS associated peptide antigen from MBP]", "values": [{"measurement": "antigen response by Th40 cells", "setting": "[3]; [4]", "value": "diminished"}, {"measurement": "antigen response by Th40 cells", "setting": "[3]; [5]", "value": "increased"}, {"measurement": "antigen response by Th40 cells", "setting": "[3]; [6]", "value": "best response"}, {"measurement": "antigen response by Th40 cells", "setting": "[3]; [7]", "value": "least reactive"}]}, {"compound": "AQGTLSKIFKLGGRDSRSGSPMARR [MBP146, MS associated peptide antigen from MBP]", "values": [{"measurement": "antigen response by Th40 cells", "setting": "[3]; [8]", "value": "no response"}, {"measurement": "antigen response by Th40 cells", "setting": "[3]; [9]", "value": "worst response antigen"}]}, {"compound": "FFRDHSYQE [MOG99, MS associated peptide antigen from MOG]", "values": [{"measurement": "antigen response by Th40 cells", "setting": "[3]; [8]", "value": "significantly less response"}, {"measurement": "antigen response by Th40 cells", "setting": "[3]; [4]", "value": "remains high"}, {"measurement": "antigen response by Th40 cells", "setting": "[3]; [5]", "value": "unaffected"}, {"measurement": "antigen response by Th40 cells", "setting": "[3]; [10]", "value": "responded"}, {"measurement": "antigen response by Th40 cells", "setting": "[3]; [7]", "value": "best antigen response"}]}, {"compound": "Glatiramer acetate [Copaxone]", "values": [{"measurement": "relapses / attacks", "setting": "[2]", "value": "decreasing frequency and severity of attacks"}, {"measurement": "MRI / MRI lesions", "setting": "[2]; reports", "value": "no reports of changes in MRI lesions"}]}, {"compound": "LVERGNHSKIVAGVLGLI [PLP103, MS associated peptide antigen from PLP]", "values": [{"measurement": "antigen response by Th40 cells", "setting": "[3]; [8]", "value": "significantly greater than the remaining antigens tested"}, {"measurement": "antigen response by Th40 cells", "setting": "[3]; [10]", "value": "equally"}, {"measurement": "antigen response by Th40 cells", "setting": "[3]; [6]", "value": "best response"}, {"measurement": "antigen response by Th40 cells", "setting": "[3]; [9]", "value": "best Th40 response"}]}, {"compound": "MEVGWYRPPFSRVVHLYRNGK [MOG35, MS associated peptide antigen from MOG]", "values": [{"measurement": "antigen response by Th40 cells", "setting": "[3]; [8]", "value": "prominent response antigen"}, {"measurement": "antigen response by Th40 cells", "setting": "[3]; [10]", "value": "very little response"}]}, {"compound": "Natalizumab [Tysabri]", "values": [{"measurement": "MRI / MRI lesions", "setting": "[2]; reports", "value": "some positive effects on MRI"}, {"measurement": "disease / disability progression", "setting": "[2]; reports", "value": "slow progression"}, {"measurement": "reduction in relapse rate", "setting": "[2]; reports, MS subjects, IV infusion once every four weeks", "value": "two-thirds"}]}, {"compound": "alemtuzumab [Lemtrada]", "values": [{"measurement": "safety in patients", "setting": "[1]", "value": "significantly increases the risk for opportunistic infections"}]}]}
